Measured values taken from paper PMC3032312 (Cell Death & Disease, 2010).

Experiments:
[1] = tested on: 36 selected tumor cell lines; test: ATP-Lite cell viability assay; format: cell-based, human; settings: 72 h
Mcl-1 = settings: displacement of fluorochrome-conjugated BH3 Bid peptide; cited from earlier work
Bcl-B = molecular target: T1, Bcl-B (Homo sapiens, UniProt Q9HD36); settings: displacement of fluorochrome-conjugated BH3 Bid peptide; ABT-737; cited from earlier work
T1 sequence (Q9HD36 1-204): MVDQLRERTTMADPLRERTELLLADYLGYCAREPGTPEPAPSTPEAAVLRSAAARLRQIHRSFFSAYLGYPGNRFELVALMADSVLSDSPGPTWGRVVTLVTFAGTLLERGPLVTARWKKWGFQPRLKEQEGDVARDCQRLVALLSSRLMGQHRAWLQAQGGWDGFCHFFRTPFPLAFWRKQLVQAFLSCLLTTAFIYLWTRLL

Bfl-1 = settings: displacement of fluorochrome-conjugated BH3 Bid peptide; cited from earlier work

In the case of CN(C)CC[C@H](CSc1ccccc1)Nc1ccc(S(=O)(=O)NC(=O)c2ccc(N3CCN(Cc4ccccc4-c4ccc(Cl)cc4)CC3)cc2)cc1[N+](=O)[O-] [ABT-737], the “cell killing effect in six of the studied cell lines” value ([1]; concentration range tested 0.1-30 μM) is given as “no effect”, the “cytotoxic activity against leukemia/lymphoma lines” value ([1]; leukemia/lymphoma lines, ATP-Lite) is given as “potent cytotoxic activity” and the “IC50 values, Mcl-1” value (Mcl-1) is given as “not active”. The “IC50 values, Bcl-B” value (Bcl-B) was “not active” and the “IC50 values, Bfl-1” value (Bfl-1) was “not active”.
